Assay [1] addresses T1, High affinity immunoglobulin epsilon receptor subunit alpha (Homo sapiens) (UniProt P12319).
T1 sequence (whole entry): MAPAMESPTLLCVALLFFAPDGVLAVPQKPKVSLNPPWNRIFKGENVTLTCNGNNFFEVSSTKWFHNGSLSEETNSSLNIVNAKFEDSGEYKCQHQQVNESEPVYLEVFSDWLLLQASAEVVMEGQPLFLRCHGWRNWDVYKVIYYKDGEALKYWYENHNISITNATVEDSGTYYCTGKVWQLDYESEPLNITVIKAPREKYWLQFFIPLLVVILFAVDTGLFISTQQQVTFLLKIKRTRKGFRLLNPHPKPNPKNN
As to the kind of experiment: Inhibition of Fc-epsilonR1-mediated histamine release in anti-human Fc-epsilonR1 antibody-stimulated human KU-812F cells by spectrofluorimetry. The class given is cell-based.

In assay [2] the test system is KU-812F. Nature of the assay: Inhibition of Fc-epsilonR1 protein expression in anti-human Fc-epsilonR1 antibody-stimulated human KU-812F cells after 24 hrs by Western blotting. In kind it is functional, cell-based. For orientation: A western blot detects proteins with antibodies after separation by electrophoresis.
Assay [3] concerns the target T1, High affinity immunoglobulin epsilon receptor subunit alpha (Homo sapiens). As to the kind of experiment: Inhibition of Fc-epsilonR1-mediated [Ca2+]i elevation in anti-human Fc-epsilonR1 antibody-stimulated human KU-812F cells. In kind it is cell-based.
The test system of assay [4] is KU-812F. As to the kind of experiment: Inhibition of Fc-epsilonR1 alpha mRNA expression in anti-human Fc-epsilonR1 antibody-stimulated human KU-812F cells after 24 hrs by RT-PCR. The class given is functional, cell-based.
Assay [5] is described as follows: Inhibition of Fc-epsilonR1 expression in anti-human Fc-epsilonR1 antibody-stimulated human KU-812F cells at 50 uM after 24 hrs by flow cytometry. In kind it is functional.
Assay [6] can be described thus: Inhibition of Fc-epsilonR1 expression in anti-human Fc-epsilonR1 antibody-stimulated human KU-812F cells at 25 uM after 24 hrs by flow cytometry. In kind it is functional. A general note: A flow cytometer gives signals particle by particle.
Assay [7] can be described thus: Inhibition of Fc-epsilonR1 expression in anti-human Fc-epsilonR1 antibody-stimulated human KU-812F cells at 10 uM after 24 hrs by flow cytometry. In kind it is functional.
The nature of assay [8]: Inhibition of Fc-epsilonR1 expression in anti-human Fc-epsilonR1 antibody-stimulated human KU-812F cells at 5 uM after 24 hrs by flow cytometry. In kind it is functional.

Turning to `Oc1cc(O)cc(Oc2c(O)cc(O)c3c2Oc2c(O)cc4oc5c(Oc6cc(O)cc(O)c6)c(O)cc(O)c5c4c2O3)c1`, the Activity result (in assay [1]; in the assay on KU-812F [2]; in assay [3]; in the assay with KU-812F [4]) was “Dose-dependent effect” in each case.
As to `Oc1cc(O)c2oc3cc(O)c4oc5cc(O)cc(O)c5oc4c3oc2c1` [DIOXINODEHYDROECKOL], the inhibition at 50 µM in assay [5] was determined as 16.9%. This compound also showed an inhibition at 25 µM in assay [6] of 19.5%. Moreover, the Activity result (in assay [1]; with KU-812F [2]; in assay [3]; in the assay with KU-812F [4]) was “Dose-dependent effect” in each case. In assay [7], this compound showed an inhibition at 10 µM of 23.1%. The same compound had an inhibition at 5 µM in assay [8] of 25.2%.

For orientation: inhibition means the change of the read-out against control, counted positive when it falls. The low end stands for a response near the control, the high end for a response far below the control.

Values taken from ChEMBL document CHEMBL1152932, “Inhibitory effects of phloroglucinol derivatives isolated from Ecklonia stolonifera on Fc(epsilon)RI expression” (Bioorg Med Chem, 2009).
